Results on 19 molecules are retold here after US8597920B2, “Class of Chloroflexi-like thermophilic cellulose degrading bacteria” (priority 2008, dated 2013).

Experiment [1] concerns Chloroflexus isolate T81. Put plainly: Growth on sole energy sources (metabolism experiments). The following applies: aerobic, 60° C.; for Growth of T81 on sole energy source, FS3V: FS3V medium (pH 4.5), energy source 0.5 g/L; for Growth of T81 on alcohol as sole energy source, FS3V: alcohol 0.05% v/v. The class given is cell-based, thermophilic Chloroflexi-like bacteria.
The test system of experiment [2] is Chloroflexus isolate T81. The description is as above. Type of experiment: cell-based, thermophilic Chloroflexi-like bacteria. The following applies: AOM1 (pH 6.5) and FS3V (pH 4.5). On the procedure:
(§1) Mineral salts medium FS3V, FeEDTA, Trace elements solution and AOM1 medium were prepared as for Example 1. Energy sources were added to both media prior to autoclaving (0.5 g/L), except where noted, via syringe filter.
(§2) Unless otherwise stated, the following growth conditions were used for all experiments; Chloroflexus strains were grown aerobically at 60° C. in capped 100 mL serum bottles containing 50 mL of medium and 50 mL air headspace. No CO2 was amended to the headspace. Medium was sterilised via autoclaving (121° C., 20 min). Fifty μL of culture was inoculated into 50 mL of sterile medium. Stock Chloroflexus strains were maintained in liquid culture on mannose and on carboxymethylcellulose (CMC), and on phytagel-based solid medium.
(§3) Growth experiments to determine growth using different energy sources were conducted using the basal media, AOM1 or FS3V. No yeast extract (YE) or vitamins were added as growth supplements to either medium in these series of experiments. […] Both the YE and vitamin mix were also tested as sole energy sources.
(§4) Sole energy sources were added at a concentration of (0.5 g/L). […] Yeast extract (Becton Dickinson, 211929), sodium pyruvate (Sigma, P2256), sodium citrate (Ajax Finechem, A467,) and sodium acetate (Sigma, S2881), were also tested as sole energy sources, along with the alcohols methanol (Merck, 1.06018), ethanol (Merck, 1.00983), 1-propanol (Merck, 1.01024), 2-propanol (Merck, 1.01040), pentanol (Sigma, 138975) and butanol (Sigma, 1.01988). A vitamin mix was tested as a sole energy source. The vitamin mixture contained (in 100 mg): 0.8 mg folic acid; 8 mg vitamin B1; 4 mg vitamin B2; 1 mg niacin; 10 mg niacinamide; 15 mg pantothenate; 15 mg pyridoxine; 5 mg cobalamin; 5 mg biotin; 15 mg choline; 15 mg inositol; 7 mg para-amino benzoic acid and was tested at 10 and 100 mg/L.
(§5) Experiments were inoculated using stock cultures of T81, T12 and T26 grown in a corresponding medium with a corresponding energy source type. For example, inoculum for testing growth on a cellulose-based compound was grown in the corresponding medium with a cellulose-based compound as an energy source. All energy sources were added at a concentration of 0.5 g/L prior to autoclave sterilisation, except for D-N-acetylglucosamine, D-(−)-fructose, sodium acetate, sodium citrate, sodium pyruvate, methanol, ethanol, 1-propanol, 2-propanol, pentanol and butanol which were added via filter sterilisation (0.22 μm pore size membrane syringe filter). Tests were conducted in triplicate with a sterile control.

In the next experiment the test system is Chloroflexus isolate T26. The experiment is described as above. The following applies: aerobic, 60° C.; for Growth of T26 on sole energy source, AOM1: AOM1 medium (pH 6.5), energy source 0.5 g/L. Type of experiment: cell-based, thermophilic Chloroflexi-like bacteria. On the procedure:
as §1, §2, §3, §4, §5

Experiment [3] relates to Chloroflexus isolate T12. Described as above. The class given is cell-based, thermophilic Chloroflexi-like bacteria. The following applies: for Growth of T12 on alcohol as sole energy source, FS3V: alcohol 0.05% v/v, aerobic, 60° C. On the procedure:
as §1, §2, §3, §4, §5

For the next experiment, the system named is Strain T81. Briefly: Preference for alcohols over saccharides (fructose with ethanol, HPLC). Type of experiment: cell-based, thermophilic Chloroflexi-like bacteria. The following applies: FS3V, 60° C. The procedure:
Unless otherwise stated, sugars and/or alcohols were measured on a Dionex Ultimate 3000® High Performance Liquid Chromatography (HPLC) unit via refractive index (RI) on a Shodex RI-101 unit (Dionex, Utah, USA). The RI unit was run at 35° C. Samples (10 μL) were injected into a degassed water carrier solution running at 0.6 mL/min. Samples were separated on a Varian PL Hi-Plex H (8 μm, 300×7.7 mm) at 60° C. (Varian, Massachusetts, USA). Chromatographs were interpreted using Chromeleon® software (Dionex, Utah, USA). Strain […] was also tested for it's preference for alcohols over saccharides. […] Strain […] was inoculated and incubated statically at 60° C. One milliliter samples were taken daily and frozen for analysis using HPLC.

Experiment [4] concerns Chloroflexus isolate T12. The following applies: FS3V, pH 4.5; ethanol as sole energy source. The procedure: All three Chloroflexus strains were tested for their ability to grow on elevated levels of ethanol. Ethanol at concentrations of 0.1%, 1.0%, 2.0%, 5.0%, 7.5%, and 10.0% (v/v) were asceptically added into FS3V medium following sterilisation as the sole energy source. Strains were then inoculated and incubated statically.

Experiment [5] has as its system Chloroflexus strains T81, T26 and T12. Briefly: Growth on energy sources, statements for all three strains together. The class given is cell-based, thermophilic Chloroflexi-like bacteria. The procedure:
Growth experiments to determine growth using different energy sources were conducted using the basal media, AOM1 or FS3V. No yeast extract (YE) or vitamins were added as growth supplements to either medium in these series of experiments. Preliminary experiments have shown that they are not requited. Both the YE and vitamin mix were also tested as sole energy sources. Sole energy sources were added at a concentration of (0.5 g/L). […] A vitamin mix was tested as a sole energy source. The vitamin mixture contained (in 100 mg): 0.8 mg folic acid; 8 mg vitamin B1; 4 mg vitamin B2; 1 mg niacin; 10 mg niacinamide; 15 mg pantothenate; 15 mg pyridoxine; 5 mg cobalamin; 5 mg biotin; 15 mg choline; 15 mg inositol; 7 mg para-amino benzoic acid and was tested at 10 and 100 mg/L. Experiments were inoculated using stock cultures of […], T12 and […] grown in a corresponding medium with a corresponding energy source type. For example, inoculum for testing growth on a cellulose-based compound was grown in the corresponding medium with a cellulose-based compound as an energy source. […] Bacterial growth was determined visually as optical density (OD) measurements are not possible due to growth characteristics of the Chloroflexi isolates. […] Cellulose pulp degradation and sugar generation by Chloroflexus strain […] was assessed. […] Growth on the various pulp tablets was assessed visually.

For the molecule `O=C[C@H](O)[C@H](O)[C@H](O)CO` [D-(−)-ribose], in the experiment on Chloroflexus isolate T81 [1], the “Growth of T81 on sole energy source, FS3V” value was “grew”.

Take `OC[C@H]1O[C@H](O[C@H]2O[C@H](CO)[C@@H](O)[C@H](O)[C@H]2O)[C@H](O)[C@@H](O)[C@@H]1O` [D-(+)-trehalose]: the “Growth of T81 on both media” value in the experiment with Chloroflexus isolate T81 [2] is “grew”.

For the molecule `CCCO` [propanol], the “Growth of T81 on alcohol as sole energy source, FS3V” value in the experiment with Chloroflexus isolate T81 [1] is on record as “best growth”. In the experiment on Chloroflexus isolate T26 (FS3V, alcohol 0.05% v/v), the “Growth of T26 on alcohol as sole energy source, FS3V” value was “best growth”.

As for `OC[C@H]1O[C@H](OC[C@H]2O[C@H](O[C@]3(CO)O[C@H](CO)[C@@H](O)[C@@H]3O)[C@H](O)[C@@H](O)[C@@H]2O)[C@H](O)[C@@H](O)[C@H]1O` [raffinose], the “Growth of T81 on both media” value with Chloroflexus isolate T81 [2] is on record as “grew”.

Take butanol: the “Growth of T12 on alcohol as sole energy source, FS3V” value with Chloroflexus isolate T12 [3] is recorded as “exception”.

Consider `O=C(CO)[C@@H](O)[C@H](O)[C@H](O)CO` [D-(−)-fructose], for which the “Consumption by T81 in presence of ethanol and fructose” value with Strain T81 (ethanol (0.05% w/v) and fructose (0.05% w/v)) is given as “consumed fructose in preference to ethanol”. The “Growth of T81 on both media” value with Chloroflexus isolate T81 [2] is “grew”.

For `C[C@@H]1O[C@@H](O)[C@H](O)[C@H](O)[C@H]1O.O` [L-rhammnose monohydrate], the “Growth of T81 on both media” value in the experiment on Chloroflexus isolate T81 [2] was “grew”. Also, the “Growth of T26 on sole energy source, AOM1” value (from here on “Growth of T26 … AOM1”) in the experiment on Chloroflexus isolate T26 (listed as L-rhamnose monohydrate, monohydrate) is “could grow”.

Consider `O=C[C@H](O)[C@@H](O)[C@H](O)[C@H](O)CO` [D-glucose], for which the “Growth of T81 on both media” value in the experiment on Chloroflexus isolate T81 [2] is on record as “grew”.

For `OC[C@H]1O[C@@H](O[C@H]2[C@H](O)[C@@H](O)[C@H](O)O[C@@H]2CO)[C@H](O)[C@@H](O)[C@@H]1O` [D-(+)-cellobiose], the “Growth of T81 on both media” value with Chloroflexus isolate T81 [2] was “grew”. The “Growth of T26 … AOM1” value in the experiment with Chloroflexus isolate T26 was “could grow”.

Regarding `O=C[C@@H](O)[C@H](O)[C@H](O)CO` [D-(+)-arabinose], the “Growth of T81 on sole energy source, FS3V” value in the experiment on Chloroflexus isolate T81 [1] was “grew”.

Consider `CCO` [ethanol], for which the “Effect of ethanol on growth of strain T81” value in the experiment with Strain T81 (5% (w/v) ethanol and 0.05% (w/v) fructose) was “inhibited the growth”. In the experiment with Chloroflexus isolate T12 [4], the “Ethanol concentrations Strain T12 was able to grow on, up to (and including)” value is ≤ 5.0 % (v/v). In addition, the “Ethanol concentrations all strains were able to grow on, up to (and including)” value in experiment [5] (FS3V, ethanol as sole energy source) is listed as ≤ 2.0 % (v/v).

Take `OC[C@H]1O[C@H](O[C@H]2[C@H](O)[C@@H](O)[C@H](O)O[C@@H]2CO)[C@H](O)[C@@H](O)[C@@H]1O` [D-(+)-maltose]: the “Growth of T81 on both media” value with Chloroflexus isolate T81 [2] is recorded as “grew”.

With `CCCCCO` [1-pentanol], in the experiment with Chloroflexus isolate T81 [1], the “Growth of T81 on alcohol as sole energy source, FS3V” value was “exception”. The “Growth of T12 on alcohol as sole energy source, FS3V” value with Chloroflexus isolate T12 [3] is “exception”.

`OC[C@H]1O[C@@](CO)(O[C@H]2O[C@H](CO)[C@@H](O)[C@H](O)[C@H]2O)[C@@H](O)[C@@H]1O` [sucrose]: the “Growth of T81 on both media” value with Chloroflexus isolate T81 [2] is given as “grew”.

As for `O=C[C@H](O)[C@@H](O)[C@H](O)CO` [D-(+)-xylose], the “Growth of T81 on both media” value in the experiment with Chloroflexus isolate T81 [2] is listed as “grew”.

As for `CC(=O)N[C@H]1C(O)O[C@H](CO)[C@@H](O)[C@@H]1O` (stereo partly drawn) [D-N-acetylglucosamine], the “Growth of T26 … AOM1” value with Chloroflexus isolate T26 (listed as D-N-actylglucosamine) is on record as “could grow”.

As to `O=C[C@@H](O)[C@@H](O)[C@H](O)[C@H](O)CO` [D-(+)-mannose], in the experiment with Chloroflexus isolate T12 [3] (AOM1 medium adjusted to pH 4.5), the “Growth of Strain T12 in AOM1 medium adjusted to pH 4.5” value is “able to grow”. Also, in the experiment with Chloroflexus isolate T81 [2], the “Growth of T81 on both media” value is on record as “grew”.

For `O=C[C@H](O)[C@@H](O)[C@@H](O)[C@H](O)CO` [D-(+)-galactose], the “Growth of T81 on both media” value in the experiment with Chloroflexus isolate T81 [2] is “grew”.

On to `O=C[C@H](O)[C@@H](O)[C@@H](O)[C@H](O)C(=O)O` [galacturonic acid], for which the “Support of growth / energy for the isolates T81, T26 and T12” value in experiment [5] (sole energy sources, AOM1 or FS3V) is reported as “did not support growth”.
